In brackets after ≈: the same amount, converted by molar mass. Several values for one entry are separate records, joined by “and”; a condition that tells them apart may be missing. Identical values can stand only once.
System: Mycobacterium tuberculosis H37Rv (ATCC 25177)
Test: Whole-cell anti-TB MIC, Resazurin Microplate Assay (REMA)
Format: cell-based
Details: MTB H37Rv
O=C1NC(c2cc(Br)ccc2F)Nc2ccccc21 (centres unmarked) [Compound 3l, 2-(5-bromo-2-fluorophenyl)-2,3-dihydroquinazolin-4(1H)-one] gave an MIC against susceptible H37Rv M. tuberculosis strain of 2 µg/mL (≈ 6.23 µM). Work on COc1cc([N+](=O)[O-])ccc1C1NC(=O)c2ccccc2N1 (centres unmarked) [Compound 3m] yielded an MIC against susceptible H37Rv M. tuberculosis strain of 2 µg/mL (≈ 6.68 µM). With O=C1NC(c2c[nH]cn2)Nc2ccccc21 (centres unmarked) [Compound 3k] the MIC against susceptible H37Rv M. tuberculosis strain was 4 µg/mL (≈ 18.7 µM).

Same assay, conditions: Mycobacterium tuberculosis; MTB H37Rv, REMA; read-out: Level of Activity (MIC), Susceptible (H37Rv)
COc1ccc(C2NC(=O)c3ccccc3N2)cc1OC (centres unmarked) [Compound 3g] showed an MIC of 64 µg/mL (≈ 225 µM). Compound O=C1NC(c2cccc(I)c2)Nc2ccccc21 (centres unmarked) [Compound 3e] has an MIC of 128 µg/mL (≈ 366 µM). Compound O=C1NC(c2ccc(Cl)cc2)Nc2ccccc21 (centres unmarked) [Compound 3f] has an MIC greater than 128 µg/mL. With O=C1NC(c2ccc(F)cc2)Nc2ccccc21 (centres unmarked) [Compound 3j] the MIC was greater than 64 µg/mL. For CN(C)c1ccc(C2NC(=O)c3ccccc3N2)cc1 (centres unmarked) [Compound 3h], the MIC was greater than 128 µg/mL. O=C1NC(c2cccc([N+](=O)[O-])c2)Nc2ccccc21 (centres unmarked) [Compound 3i] showed an MIC greater than 64 µg/mL. Work on O=C1NC(c2ccc(OC(F)(F)F)cc2)Nc2ccccc21 (centres unmarked) [Compound 3d] yielded an MIC greater than 64 µg/mL. Work on O=C1NC(c2cc(Br)ccc2F)Nc2ccccc21 (centres unmarked) [Compound 3l, 2-(5-bromo-2-fluorophenyl)-2,3-dihydroquinazolin-4(1H)-one] yielded an MIC of 2 µg/mL (≈ 6.23 µM). COc1ccc(C2NC(=O)c3ccccc3N2)cc1 (centres unmarked) [Compound 3a] gave an MIC of 64 µg/mL (≈ 252 µM). COc1cc([N+](=O)[O-])ccc1C1NC(=O)c2ccccc2N1 (centres unmarked) [Compound 3m] showed an MIC of 2 µg/mL (≈ 6.68 µM). Compound N#Cc1ccc(C2NC(=O)c3ccccc3N2)cc1 (centres unmarked) [Compound 3b] has an MIC greater than 64 µg/mL. For O=C1NC(c2cccc(O)c2)Nc2ccccc21 (centres unmarked) [Compound 3c], the MIC was 8 µg/mL (≈ 33.3 µM). With O=C1NC(c2c[nH]cn2)Nc2ccccc21 (centres unmarked) [Compound 3k] the MIC was 4 µg/mL (≈ 18.7 µM).

System: not listed separately
Test: MTT cytotoxicity assay
Format: cell-based
Details: human, CCD-1064SK normal human skin fibroblast cells, mean ± SD of three replicates
Method: (§1) Fibroblast cells were cultured in Iscove’s Modified Dulbecco’s Medium (Euro Clone, Italy) as recommended by ATCC. The media was supplemented with 10% heat-inactivated fetal bovine serum (FBS) (Ebsdorfergrund, Germany), 1% of 2 mM L-glutamine, 100 U/mL penicillin, and 100 µg/mL streptomycin. According to the cells’ growth profile, fibroblast-seeding density was 1 × 10^5 cell/well. Cell viability was determined by trypan blue exclusion using a hemocytometer.
(§2) The MTT colorimetric assay was used to assess the effect of the synthesized compounds on the viability of the fibroblast cell lines. […] A volume of 10 mL of the culture media was added, and the cell suspension was centrifuged at 1000 rpm for 10 min. The pellets were resuspended in a 10 mL medium to make a single-cell suspension. […] The cell suspension was diluted to give the optimal seeding density, and 100 µL of the cell suspension was plated in a 96-well plate. Cells were cultured at 37 °C in a humidified atmosphere of 5% CO2. After 24 h incubation, the cells were treated with 100 µM of the synthesized compounds (diluted in culture media to yield the required concentration) and then incubated for 72 h. At the end of the exposure time, 15 µL of MTT stock solution (5 mg/mL in sterile PBS, pH 7.4) (Promega, Madison, WI, USA) was added to each well and incubated for 3 h. After that, 100 µL of solubilizing stop solution was added to each well to solubilize the dark violet formazan crystals. The optical densities at 570 nm were then measured using a micro-plate reader (Biotek, Winooski, VT, USA), and the percentage of cell viability was calculated with respect to a control corresponding to untreated cells.
Compound COc1ccc(C2NC(=O)c3ccccc3N2)cc1OC (centres unmarked) [Compound 3g] has a cytotoxicity at 72 h, 100 µM of 32.5 ± 11%. Compound O=C1NC(c2cccc(I)c2)Nc2ccccc21 (centres unmarked) [Compound 3e] has a cytotoxicity at 72 h, 100 µM of 72 ± 8.3%. Compound O=C1NC(c2ccc(Cl)cc2)Nc2ccccc21 (centres unmarked) [Compound 3f] has a cytotoxicity at 72 h, 100 µM of 57.6 ± 3.7%. With O=C1NC(c2ccc(F)cc2)Nc2ccccc21 (centres unmarked) [Compound 3j] the cytotoxicity at 72 h, 100 µM was 44.1 ± 11.5%. With CN(C)c1ccc(C2NC(=O)c3ccccc3N2)cc1 (centres unmarked) [Compound 3h] the cytotoxicity at 72 h, 100 µM was 54.6 ± 2.8%. In the case of O=C1NC(c2cccc([N+](=O)[O-])c2)Nc2ccccc21 (centres unmarked) [Compound 3i], the cytotoxicity at 72 h, 100 µM is reported as 24.1 ± 3.9%. With O=C1NC(c2ccc(OC(F)(F)F)cc2)Nc2ccccc21 (centres unmarked) [Compound 3d] the cytotoxicity at 72 h, 100 µM was 47.6 ± 1.6%. For O=C1NC(c2cc(Br)ccc2F)Nc2ccccc21 (centres unmarked) [Compound 3l, 2-(5-bromo-2-fluorophenyl)-2,3-dihydroquinazolin-4(1H)-one], the cytotoxicity at 72 h, 100 µM was 36%. Work on COc1cc([N+](=O)[O-])ccc1C1NC(=O)c2ccccc2N1 (centres unmarked) [Compound 3m] yielded a cytotoxicity at 72 h, 100 µM of 31%. With N#Cc1ccc(C2NC(=O)c3ccccc3N2)cc1 (centres unmarked) [Compound 3b] the cytotoxicity at 72 h, 100 µM was 19.5 ± 5%. Work on O=C1NC(c2cccc(O)c2)Nc2ccccc21 (centres unmarked) [Compound 3c] yielded a cytotoxicity at 72 h, 100 µM of 58.5 ± 1.1%.

Same assay, conditions: normal human fibroblast cells, mean ± SD of three replicates
With COc1ccc(C2NC(=O)c3ccccc3N2)cc1 (centres unmarked) [Compound 3a] the cytotoxicity at 72 h, 100 µM was 28.8 ± 0.6%. For O=C1NC(c2c[nH]cn2)Nc2ccccc21 (centres unmarked) [Compound 3k], the cytotoxicity at 72 h, 100 µM was 19.2 ± 4.9%.

System: normal human skin fibroblast cells (CCD-1064SK)
Test: MTT cytotoxicity assay
Format: cell-based
Details: 72 h, mean ± SD of three replicates
Method: as §1, §2
In the case of O=C1NC(c2cc(Br)ccc2F)Nc2ccccc21 (centres unmarked) [Compound 3l, 2-(5-bromo-2-fluorophenyl)-2,3-dihydroquinazolin-4(1H)-one], the “Cytotoxicity (%) at 100 µM” value is reported as 36.3 ± 4.2%. In the case of COc1cc([N+](=O)[O-])ccc1C1NC(=O)c2ccccc2N1 (centres unmarked) [Compound 3m], the “Cytotoxicity (%) at 100 µM” value is reported as 30% and 30.9 ± 8.8%.

System: MDR strains of Mycobacterium tuberculosis
Test: Whole-cell anti-TB MIC, Resazurin Microplate Assay (REMA)
Format: cell-based
Details: MDR MTB strains, REMA
In the case of COc1ccc(C2NC(=O)c3ccccc3N2)cc1OC (centres unmarked) [Compound 3g], the “Level of Activity (MIC), MDR” value is reported as “No activity”. With O=C1NC(c2cccc(I)c2)Nc2ccccc21 (centres unmarked) [Compound 3e] the “Level of Activity (MIC), MDR” value was “No activity”. For O=C1NC(c2ccc(Cl)cc2)Nc2ccccc21 (centres unmarked) [Compound 3f], the “Level of Activity (MIC), MDR” value was “No activity”. For O=C1NC(c2ccc(F)cc2)Nc2ccccc21 (centres unmarked) [Compound 3j], the “Level of Activity (MIC), MDR” value was “No activity”. For CN(C)c1ccc(C2NC(=O)c3ccccc3N2)cc1 (centres unmarked) [Compound 3h], the “Level of Activity (MIC), MDR” value was “No activity”. For O=C1NC(c2cccc([N+](=O)[O-])c2)Nc2ccccc21 (centres unmarked) [Compound 3i], the “Level of Activity (MIC), MDR” value was “No activity”. With O=C1NC(c2ccc(OC(F)(F)F)cc2)Nc2ccccc21 (centres unmarked) [Compound 3d] the “Level of Activity (MIC), MDR” value was “No activity”. With N#Cc1ccc(C2NC(=O)c3ccccc3N2)cc1 (centres unmarked) [Compound 3b] the “Level of Activity (MIC), MDR” value was “No activity”.

Same assay, conditions: Mycobacterium tuberculosis, read-out: Level of Activity (MIC), MDR
For O=C1NC(c2cc(Br)ccc2F)Nc2ccccc21 (centres unmarked) [Compound 3l, 2-(5-bromo-2-fluorophenyl)-2,3-dihydroquinazolin-4(1H)-one], the MIC was greater than 64 µg/mL. COc1ccc(C2NC(=O)c3ccccc3N2)cc1 (centres unmarked) [Compound 3a] gave an MIC greater than 128 µg/mL. Compound COc1cc([N+](=O)[O-])ccc1C1NC(=O)c2ccccc2N1 (centres unmarked) [Compound 3m] has an MIC greater than 64 µg/mL. O=C1NC(c2cccc(O)c2)Nc2ccccc21 (centres unmarked) [Compound 3c] gave an MIC greater than 32 µg/mL. For O=C1NC(c2c[nH]cn2)Nc2ccccc21 (centres unmarked) [Compound 3k], the MIC was 16 µg/mL (≈ 74.7 µM).
